Source: patent US10435399B2, “HDAC6 inhibitory heterocyclic compound” (TAKEDA PHARMACEUTICAL COMPANY LIMITED, priority 2017, dated 2019)

target: T1, HDAC6 enzyme (Homo sapiens, UniProt Q9UBN7); test: HDAC6 enzyme inhibitory activity (HDAC-Glo I/II Assay kit); format: biochemical; details: 10 μM; wells without enzyme = 100% inhibition
T1 construct: transducing full length HDAC6 gene into Sf-9 insect cells; GST; purchased SignalChem; host or cells: Sf-9 insect cells
T1 sequence (Q9UBN7 1-1215): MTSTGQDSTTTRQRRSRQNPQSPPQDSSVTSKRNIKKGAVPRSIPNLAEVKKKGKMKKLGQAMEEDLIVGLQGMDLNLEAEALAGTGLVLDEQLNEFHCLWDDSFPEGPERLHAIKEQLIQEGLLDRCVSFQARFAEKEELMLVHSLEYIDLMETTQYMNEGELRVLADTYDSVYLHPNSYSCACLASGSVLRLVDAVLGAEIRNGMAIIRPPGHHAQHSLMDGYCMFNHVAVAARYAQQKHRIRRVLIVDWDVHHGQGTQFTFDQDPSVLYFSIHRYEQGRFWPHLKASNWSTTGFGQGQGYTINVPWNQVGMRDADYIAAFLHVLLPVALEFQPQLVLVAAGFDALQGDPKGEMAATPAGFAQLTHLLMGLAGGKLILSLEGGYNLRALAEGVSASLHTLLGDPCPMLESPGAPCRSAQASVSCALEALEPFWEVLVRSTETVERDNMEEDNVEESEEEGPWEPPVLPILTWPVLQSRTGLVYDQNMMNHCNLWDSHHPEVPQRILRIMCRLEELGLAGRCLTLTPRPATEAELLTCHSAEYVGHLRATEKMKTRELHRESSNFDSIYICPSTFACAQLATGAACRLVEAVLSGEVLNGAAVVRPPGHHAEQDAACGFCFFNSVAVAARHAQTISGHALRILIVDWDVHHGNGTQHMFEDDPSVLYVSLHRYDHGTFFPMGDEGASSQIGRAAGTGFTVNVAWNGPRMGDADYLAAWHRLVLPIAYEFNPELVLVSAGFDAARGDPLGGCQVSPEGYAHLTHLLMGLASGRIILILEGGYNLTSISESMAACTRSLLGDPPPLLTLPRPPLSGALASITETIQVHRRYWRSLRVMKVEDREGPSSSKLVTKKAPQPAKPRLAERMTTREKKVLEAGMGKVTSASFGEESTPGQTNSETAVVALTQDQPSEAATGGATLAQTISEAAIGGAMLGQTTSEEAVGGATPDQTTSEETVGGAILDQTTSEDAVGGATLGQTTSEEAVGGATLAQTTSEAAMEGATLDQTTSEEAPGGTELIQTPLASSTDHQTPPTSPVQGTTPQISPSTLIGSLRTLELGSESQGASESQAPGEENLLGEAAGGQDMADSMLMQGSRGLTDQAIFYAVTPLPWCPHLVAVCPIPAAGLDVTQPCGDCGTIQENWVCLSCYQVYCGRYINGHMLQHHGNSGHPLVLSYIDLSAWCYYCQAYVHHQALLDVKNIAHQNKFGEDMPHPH
Outline: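 Sf-9-derived GST-purified full-length HDAC6 + cpd, 60 min RT, 24 mM Tris pH 7.5/0.6 mM glutathione/0.01% Tween-20; add HDAC-Glo substrate-developer, 20 min RT; luminescence. No-enzyme = 100% inhibition.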

Q: With Cc1ccc(C2CC(F)(F)CCN2N2Cc3ccc(-c4nnc(C(F)F)o4)cc3C2=O)nc1 (stereo not drawn) [Example 614, 6-(5-(difluoromethyl)-1,3,4-oxadiazol-2-yl)-2-(4,4-difluoro-2-(5-methylpyridin-2-yl)piperidin-1-yl)isoindolin-1-one (optical isomer)] as the compound, how does the “HDAC6 inhibitory rate (%) (10 μM)” value read?
A: 99%

Q: O=C(NCC(F)(F)F)C1CC(F)(F)CCN1N1Cc2ccc(-c3nnc(C(F)F)o3)cc2C1=O (stereo not drawn) [Example 579, 1-(6-(5-(difluoromethyl)-1,3,4-oxadiazol-2-yl)-1-oxo-1,3-dihydro-2H-isoindol-2-yl)-4,4-difluoro-N-(2,2,2-trifluoroethyl)piperidine-2-carboxamide (Optical Isomer)] was tested. Which “HDAC6 inhibitory rate (%) (10 μM)” value did it give?
A: 100%

Q: Which “HDAC6 inhibitory rate (%) (10 μM)” value does the source give for O=C1c2cc(-c3nnc(C(F)F)o3)cnc2CN1[C@@H]1COCC[C@H]1Oc1c(F)cccc1F [Example 660, 1,5-anhydro-2,4-dideoxy-2-{3-[5-(difluoromethyl)-1,3,4-oxadiazol-2-yl]-5-oxo-5,7-dihydro-6H-pyrrolo[3,4-b]pyridin-6-yl}-3-O-(2,6-difluorophenyl)-threo-pentitol (optical isomer)] here?
A: 100%

same assay, conditions: 10 μM; wells without enzyme = 100% inhibition; read-out: HDAC6 inhibitory rate (%) (10 μM)

Q: How did the inhibition at 10 µM turn out when Cc1nn(C)cc1-c1ccccc1N1Cc2ccc(-c3nnc(C(F)F)o3)cc2C1=O [Example 159, 6-(5-(difluoromethyl)-1,3,4-oxadiazol-2-yl)-2-(2-(1,3-dimethyl-1H-pyrazol-4-yl)phenyl)isoindolin-1-one] was run?
A: 100%

Q: With N#CC1(C(=O)N[C@@H]2CCCC[C@H]2N2Cc3ccc(-c4nnc(C(F)F)o4)cc3C2=O)CCC1 [Example 78, 1-cyano-N-((1R,2R)-2-(6-(5-(difluoromethyl)-1,3,4-oxadiazol-2-yl)-1-oxo-1,3-dihydro-2H-isoindol-2-yl)cyclohexyl)cyclobutanecarboxamide] as the compound, how does the inhibition at 10 µM read?
A: 100%

Q: How did the inhibition at 10 µM turn out when O=C1c2cc(-c3nnc(C(F)F)o3)ccc2CN1C[C@H]1COCCN1 [Example 36, 6-(5-(difluoromethyl)-1,3,4-oxadiazol-2-yl)-2-((3S)-morpholin-3-ylmethyl)isoindolin-1-one] was run?
A: 85%

Q: Which inhibition at 10 µM does the source give for O=C1c2cc(-c3nnc(C(F)F)o3)ccc2CN1N1CCCCC1c1cccc(F)c1 (centres unmarked) [Example 603, 6-(5-(difluoromethyl)-1,3,4-oxadiazol-2-yl)-2-(2-(3-fluorophenyl)piperidin-1-yl)isoindolin-1-one] here?
A: 100%

Q: With O=C1c2cc(-c3nnc(C(F)F)o3)ccc2CN1N1CCCCC1c1ccc(F)cc1 (centres unmarked) [Example 594, 6-(5-(difluoromethyl)-1,3,4-oxadiazol-2-yl)-2-(2-(4-fluorophenyl)piperidin-1-yl)isoindolin-1-one] as the compound, how does the inhibition at 10 µM read?
A: 101%

Q: With Cn1cc(C2=CCOCC2)c(N2Cc3ccc(-c4nnc(C(F)F)o4)cc3C2=O)n1 [Example 448, 6-(5-(difluoro-methyl)-1,3,4-oxadiazol-2-yl)-2-(4-(3,6-dihydro-2H-pyran-4-yl)-1-methyl-1H-pyrazol-3-yl) isoindolin-1-one] as the compound, how does the inhibition at 10 µM read?
A: 100%

Q: How did the inhibition at 10 µM turn out when O=C1c2cc(-c3nnc(C(F)F)o3)cnc2CN1c1ccccc1-c1cnn(C(F)F)c1 [Example 424, 3-(5-(difluoro-methyl)-1,3,4-oxadiazol-2-yl)-6-(2-(1-(difluoro-methyl)-1H-pyrazol-4-yl)phenyl)-6,7-dihydro-5H-pyrrolo[3,4-b] pyridin-5-one] was run?
A: 101%

Q: O=C1c2cc(-c3nnc(C(F)F)o3)cnc2CN1C1(c2ccccc2F)CC1 [Example 350, 3-(5-(difluoromethyl)-1,3,4-oxadiazol-2-yl)-6-(1-(2-fluorophenyl)cyclopropyl)-6,7-dihydro-5H-pyrrolo[3,4-b]pyridin-5-one] was tested. Which inhibition at 10 µM did it give?
A: 99%

Q: Cn1cc(C2CCC(NCC(F)(F)C(F)(F)F)CC2)c(N2Cc3ccc(-c4nnc(C(F)F)o4)cc3C2=O)n1 (centres unmarked) [Example 557, 6-(5-(difluoromethyl)-1,3,4-oxadiazol-2-yl)-2-(1-methyl-4-(4-((2,2,3,3,3-pentafluoropropyl)amino)cyclohexyl)-1H-pyrazol-3-yl)isoindolin-1-one] was tested. Which inhibition at 10 µM did it give?
A: 99%

Q: For N#Cc1ccc(-c2ccccc2N2Cc3ccc(-c4nnc(C(F)F)o4)cc3C2=O)cc1 [Example 279, 2′-(6-(5-(difluoromethyl)-1,3,4-oxadiazol-2-yl)-1-oxo-1,3-dihydro-2H-isoindol-2-yl)-biphenyl-4-carbonitrile], which inhibition at 10 µM is on record?
A: 89%

Q: With O=C1c2cc(-c3nnc(C(F)F)o3)ccc2CN1[C@@H]1CCCC(F)(F)[C@@H]1NC(=O)C(F)(F)C(F)(F)F [Example 625, N-((1R,6R)-6-(6-(5-(difluoromethyl)-1,3,4-oxadiazol-2-yl)-1-oxo-1,3-dihydro-2H-isoindol-2-yl)-2,2-difluorocyclohexyl)-2,2,3,3,3-pentafluoropropanamide] as the compound, how does the inhibition at 10 µM read?
A: 101%

Q: For O=C(N[C@@H]1CCCC[C@H]1N1Cc2ncc(-c3nnc(C(F)F)o3)cc2C1=O)c1ccccc1 [Example 465, N-((1R,2R)-2-(3-(5-(difluoro-methyl)-1,3,4-oxadiazol-2-yl)-5-oxo-5,7-dihydro-6H-pyrrolo[3,4-b]pyridin-6-yl)cyclohexyl) benzamide], which inhibition at 10 µM is on record?
A: 99%

Q: How did the inhibition at 10 µM turn out when CC1(C)OB(c2ccccc2N2Cc3ccc(-c4nnc(C(F)F)o4)cc3C2=O)OC1(C)C [Example 178, 6-(5-(difluoromethyl)-1,3,4-oxadiazol-2-yl)-2-(2-(4,4,5,5-tetramethyl-1,3,2-dioxaborolan-2-yl)phenyl)isoindolin-1-one] was run?
A: 41%

Q: Which inhibition at 10 µM does the source give for CC(C)(C)OC(=O)N[C@@H]1CCCC(F)(F)[C@H]1N1Cc2ncc(-c3nnc(C(F)F)o3)cc2C1=O [Example 496, tert-butyl ((1R,2S)-2-(3-(5-(difluoro-methyl)-1,3,4-oxadiazol-2-yl)-5-oxo-5,7-dihydro-6H-pyrrolo[3,4-b]pyridin-6-yl)-3,3-difluoro-cyclohexyl) carbamate] here?
A: 100%

Q: For O=C1c2cc(-c3nnc(C(F)F)o3)ccc2CN1[C@@H]1CCCC[C@H]1NC(=O)C1(C(F)F)CC1 [Example 23, 1-(difluoromethyl)-N-((1R,2R)-2-(6-(5-(difluoromethyl)-1,3,4-oxadiazol-2-yl)-1-oxo-1,3-dihydro-2H-isoindol-2-yl)cyclohexyl)cyclopropanecarboxamide], which inhibition at 10 µM is on record?
A: 99%

Q: How did the inhibition at 10 µM turn out when O=C1c2cc(-c3nnc(C(F)F)o3)cc(F)c2CN1[C@@H]1CCCC[C@H]1NC(=O)C1(C(F)F)CC1 [Example 236, 1-(difluoromethyl)-N-((1R,2R)-2-(6-(5-(difluoromethyl)-1,3,4-oxadiazol-2-yl)-4-fluoro-1-oxo-1,3-dihydro-2H-isoindol-2-yl)-cyclohexyl)cyclopropanecarbox-amide] was run?
A: 98%

Q: For O=C1c2cc(-c3nnc(C(F)F)o3)ccc2CN1c1ccccc1-c1ccc(C(F)(F)F)cc1 [Example 133, 6-(5-(difluoromethyl)-1,3,4-oxadiazol-2-yl)-2-(4′-(trifluoromethyl)biphenyl-2-yl)isoindolin-1-one], which inhibition at 10 µM is on record?
A: 93%

Q: With CC1(C(=O)N[C@@H]2CCCC[C@H]2N2Cc3ccc(-c4nnc(C(F)F)o4)cc3C2=O)CC1 [Example 15, N-((1R,2R)-2-(6-(5-(difluoromethyl)-1,3,4-oxadiazol-2-yl)-1-oxo-1,3-dihydro-2H-isoindol-2-yl)cyclohexyl)-1-methylcyclopropanecarboxamide] as the compound, how does the inhibition at 10 µM read?
A: 98%

Q: How did the inhibition at 10 µM turn out when O=C(N[C@@H]1CCCC[C@H]1N1Cc2ccc(-c3nnc(C(F)F)o3)cc2C1=O)c1ccc(Cl)cc1 [Example 101, 4-chloro-N-((1R,2R)-2-(6-(5-(difluoromethyl)-1,3,4-oxadiazol-2-yl)-1-oxo-1,3-dihydro-2H-isoindol-2-yl)cyclohexyl)benzamide] was run?
A: 99%

Q: How did the inhibition at 10 µM turn out when CCC(F)(F)C(=O)N[C@@H]1CCCC[C@H]1N1Cc2c(F)cc(-c3nnc(C(F)F)o3)cc2C1=O [Example 210, N-((1R,2R)-2-(6-(5-(difluoromethyl)-1,3,4-oxadiazol-2-yl)-4-fluoro-1-oxo-1,3-dihydro-2H-isoindol-2-yl)cyclohexyl)-2,2-difluorobutanamide] was run?
A: 101%
